Data reported in patent publication US8367698B2, “3-substituted sulfonyl piperidine derivative” (MSD K.K., priority 2008, dated 2013).
pIC50: −log10 of the molar value.

Target: T1, human LCE (Homo sapiens, UniProt Q9H5J4)
T1 sequence (Q9H5J4 1-265): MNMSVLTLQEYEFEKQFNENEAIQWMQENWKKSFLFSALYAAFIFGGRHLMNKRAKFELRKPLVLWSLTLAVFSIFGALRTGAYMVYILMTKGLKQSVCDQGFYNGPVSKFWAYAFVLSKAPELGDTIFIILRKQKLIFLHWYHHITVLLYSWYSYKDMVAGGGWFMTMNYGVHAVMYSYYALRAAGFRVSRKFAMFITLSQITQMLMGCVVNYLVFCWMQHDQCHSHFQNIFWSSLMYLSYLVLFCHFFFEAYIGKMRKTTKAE
Assay: LCE enzymatic activity inhibition test
Assay type: biochemical
Settings: palmitoyl-CoA and [14C]-malonyl-CoA substrate, 37° C. for 90 minutes, pH 6.5
Procedure: A test compound was dissolved in dimethylsulfoxide (DMSO) at 10 mM, and then, the resulting solution was further diluted with DMSO to prepare a 1000-fold stock solution having a concentration 1000 times higher than the concentration to be evaluated. An LCE enzymatic activity inhibition test was carried out by a modified method of Moon (J. Biol. Chem., Vol. 276, pp. 45358-45366, (2001)) et al. That is, the diluted test compound was added to a 96-well assay plate (Corning, 96-Well Assay Block) in an amount of 1.0 μL per well, and thereafter, 50 μL of a phosphate buffer solution (a 100 mM potassium phosphate buffer solution (pH 6.5)), 25 μL of a substrate solution (a 100 mM potassium phosphate buffer solution (pH 6.5), 4.0 μM rotenone, 80 μM fatty acid-free bovine serum albumin, 160 μM palmitoyl-CoA, 80 μM malonyl-CoA, 3.5 μM [^14C]-malonyl-CoA (1.92 GBq/mmol, manufactured by Amersham, Inc.)) was added to each well, and further, 25 μL of an enzyme solution (a 100 mM potassium phosphate buffer solution (pH 6.5), 100 μg/mL human LCE) was added thereto. Then, the upper part of the plate was hermetically closed with a seal member, and the plate was incubated at 37° C. for 90 minutes while gently shaking and stirring. Thereafter, to each well, 100 μL of 5 N HCl was added and the assay plate was stirred at room temperature for 5 minutes, whereby the enzymatic reaction was stopped and also acyl-CoA was hydrolyzed. Thereafter, the enzymatic reaction solution in each well was adsorbed to each well of a 96-well GF/C filter plate (PerkinElmer, Unifilter 96GF/C) through which water had been passed in advance, and then, each well was washed with water to remove unadsorbed malonyl-CoA and the GF/C filter plate was dried at 50° C. for 60 minutes. Thereafter, to each well, 30 μL of a scintillator (PerkinElmer, Microscinti 0) was added and the upper part of the plate was sealed, and the radioactivity of the fixed [^14C] was measured using a microplate scintillation counter (PerkinElmer, Top Count) from which the enzymatic activity was determined. The human LCE enzyme inhibitory activity of the test compound was calculated using the radioactivity obtained from a well to which DMSO containing no test compound is added as a control.

Row | SMILES | pIC50
1 | CC(C)Oc1ccc(NC(=O)[C@@H]2C[C@@H]3CC[C@H]2N(S(=O)(=O)c2cn(C)cn2)C3)cc1 (relative stereo) [Example 26, (1R*,4S*,6R*)-N-(4-Isopropoxyphenyl)-2-[(1-methyl-1H-imidazol-4-yl)sulfonyl]-2-azabicyclo[2.2.2]octane-6-carboxamide] | 6.57
2 | CCCCS(=O)(=O)N1C[C@H]2CC[C@@H]1[C@H](C(=O)Nc1cc(C3CC3)n[nH]1)C2 (relative stereo) [Example 42, (1R*,4S*,6R*)-2-(Butylsulfonyl)-N-(3-cyclopropyl-1H-pyrazol-5-yl)-2-azabicyclo[2.2.2]octane-6-carboxamide] | 6.81
3 | CC(C)Oc1ccc(NC(=O)[C@@H]2C[C@@H]3CC[C@H]2N(S(=O)(=O)c2cn(C)cn2)C3)nc1 (relative stereo) [Example 48, (1R*,4S*,6R*)-N-(5-isopropoxypyridin-2-yl)-2-[(1-methyl-1H-imidazol-4-yl)sulfonyl]-2-azabicyclo[2.2.2]octane-6-carboxamide] | 6.80
4 | CC(C)Oc1cc(NC(=O)[C@@H]2C[C@@H]3CC[C@H]2N(S(=O)(=O)c2cn(C)cn2)C3)n[nH]1 (relative stereo) [Example 105, (1R*,4S*,6R*)-N-(5-Isopropoxy-1H-pyrazol-3-yl)-2-[(1-methyl-1H-imidazol-4-yl)sulfonyl]-2-azabicyclo[2.2.2]octane-6-carboxamide] | 6.88
5 | CCCS(=O)(=O)N1CCCC(CNC(=O)c2ccc(OC(C)C)cn2)(c2ccccc2)C1 (stereo not drawn) [Example 76, 5-Isopropoxy-N-{[3-phenyl-1-(propylsulfonyl)piperidin-3-yl]methyl}pyridine-2-carboxamide] | 7.36
6 | CC(C)Oc1ccc(C(=O)NCC2(c3ccccc3)CCCN(S(=O)(=O)c3cn(C)cn3)C2)nc1 (stereo not drawn) [Example 79, 5-Isopropoxy-N-({1-[(1-methyl-1H-imidazol-4-yl)sulfonyl]-3-phenylpiperidin-3-yl}methyl)pyridine-2-carboxamide] | 7.31
7 | CC(C)Oc1ccc(C(=O)NCC2(C)CCCN(S(=O)(=O)c3ccccc3)C2)cc1 (stereo not drawn) [Example 81, 4-Isopropoxy-N-{[3-methyl-1-(phenylsulfonyl)piperidin-3-yl]methyl}benzamide] | 7.29
8 | CC(C)Oc1ccc(C(=O)NCC2(C)CCCN(S(=O)(=O)c3ccccn3)C2)cc1 (stereo not drawn) [Example 82, 4-Isopropoxy-N-{[3-methyl-1-(pyridin-2-ylsulfonyl)piperidin-3-yl]methyl}benzamide] | 7.22
9 | CCC1(CNC(=O)c2ccc(OC(C)C)cc2)CCCN(S(=O)(=O)c2cn(C)cn2)C1 (stereo not drawn) [Example 86, N-({3-Ethyl-1-[(1-methyl-1H-imidazol-4-yl)sulfonyl]piperidin-3-yl}methyl)-4-isopropoxybenzamide] | 6.55
10 | CCC1(C(=O)Nc2cc(OC(C)C)[nH]n2)CCCN(S(=O)(=O)c2cn(C)cn2)C1 (stereo not drawn) [Example 104, 3-Ethyl-N-(5-isopropoxy-1H-pyrazol-3-yl)-1-[(1-methyl-1H-imidazol-4-yl)sulfonyl]piperidine-3-carboxamide] | 7.42

Stronger by pIC50, values ahead:

Row | pIC50 | SMILES
11 | 7.72 | CC(C)Oc1ccc(NC(=O)[C@@H]2C[C@@H]3CC[C@H]2N(S(=O)(=O)c2ccccn2)C3)nc1 (relative stereo) [Example 47, (1R*,4S*,6R*)-N-(5-Isopropoxypyridin-2-yl)-2-(pyridin-2-ylsulfonyl)-2-azabicyclo[2.2.2]octane-6-carboxamide]
12 | 7.70 | COc1ccccc1C(=O)NCC1(c2ccccc2)CCCN(S(=O)(=O)c2ccccn2)C1 (stereo not drawn) [Example 64, 2-Methoxy-N-{[3-phenyl-1-(pyridin-2-ylsulfonyl)piperidin-3-yl]methyl}benzamide]
13 | 8.43 | CC(C)Oc1ccc(C(=O)NCC2(c3ccccc3)CCCN(S(=O)(=O)c3ccccn3)C2)cc1 (stereo not drawn) [Example 73, 4-Isopropoxy-N-{[3-phenyl-1-(pyridin-2-ylsulfonyl)piperidin-3-yl]methyl}benzamide]
14 | 7.76 | CC(C)Oc1ccc(C(=O)NCC2(c3ccccc3)CCCN(S(=O)(=O)c3cn(C)cn3)C2)cc1 (stereo not drawn) [Example 74, 4-Isopropoxy-N-({1-[(1-methyl-1H-imidazol-4-yl)sulfonyl]-3-phenylpiperidin-3-yl}methyl)benzamide]
15 | 7.85 | CC(C)Oc1ccc(C(=O)NCC2(c3ccccc3)CCCN(S(=O)(=O)c3ccccn3)C2)nc1 (stereo not drawn) [Example 78, 5-Isopropoxy-N-{[3-phenyl-1-(pyridin-2-ylsulfonyl)piperidin-3-yl]methyl}pyridine-2-carboxamide]
16 | 7.85 | CCC1(CNC(=O)c2ccc(OC(C)C)cc2)CCCN(S(=O)(=O)c2ccccn2)C1 (stereo not drawn) [Example 85, N-{[3-Ethyl-1-(pyridin-2-ylsulfonyl)piperidin-3-yl]methyl}-4-isopropoxybenzamide]
17 | 7.92 | CC(C)Cc1cc(C(=O)NCC2(c3ccccc3)CCCN(S(=O)(=O)c3cn(C)cn3)C2)[nH]n1 (stereo not drawn) [Example 98, 3-Isobutyl-N-({1-[(1-methyl-1H-imidazol-4-yl)sulfonyl]-3-phenylpiperidin-3-yl}methyl)-1H-pyrazole-5-carboxamide]
18 | 7.46 | CCC1(C(=O)Nc2ccc(OC(C)C)cn2)CCCN(S(=O)(=O)c2cn(C)cn2)C1 (stereo not drawn) [Example 103, 3-Ethyl-N-(5-isopropoxypyridin-2-yl)-1-[(1-methyl-1H-imidazol-4-yl)sulfonyl]piperidine-3-carboxamide]
